Values of other authors as cited in patent publication US11229674B1, “Nutraceuticals for suppressing indolamine 2,3 deoxygenase” (Therapeutic Solutions International, Inc., priority 2020, dated 2022).

What was measured:
IDO [1] = molecular target: T1, IDO (Mus musculus, UniProt P28776); conditions: pregnant mice, allogeneic fetuses
T1 construct: host or cells: tumour-bearing mice (whole animal)

IDO [2] = molecular target: T1, IDO; conditions: mice, combined with chemotherapeutic agents

T1 sequence (P28776 whole entry): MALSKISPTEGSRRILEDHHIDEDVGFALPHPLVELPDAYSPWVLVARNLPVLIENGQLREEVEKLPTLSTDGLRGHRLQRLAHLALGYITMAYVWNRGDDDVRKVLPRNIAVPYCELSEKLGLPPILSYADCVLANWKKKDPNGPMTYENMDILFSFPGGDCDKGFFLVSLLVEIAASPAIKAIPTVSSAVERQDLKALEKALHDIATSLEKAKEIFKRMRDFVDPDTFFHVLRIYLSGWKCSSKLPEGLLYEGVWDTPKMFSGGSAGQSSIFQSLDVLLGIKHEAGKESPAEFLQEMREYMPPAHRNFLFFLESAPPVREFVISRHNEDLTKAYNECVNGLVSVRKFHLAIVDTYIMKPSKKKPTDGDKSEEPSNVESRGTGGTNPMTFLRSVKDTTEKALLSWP

Cn1cc(CC(N)C(=O)O)c2ccccc21 (centres unmarked) [1MT]
Fetal allograft rejection (IDO [1]): rapid, T cell-induced rejection of all allogeneic concept | Tumor growth (IDO [2]): synergize with chemotherapeutic agents to reduce tumor growth
